Data as given in the NIST ThermoML archive (doi:10.1016/j.jct.2018.12.039).

Test: xn = mol fraction of the nth substance listed
Conditions: 100 kPa, Liquid; for speed of sound: Frequency=2 MHz, Linear variable-path acoustic interferometer; for mass density: Vibrating tube method

Cc1ccc(O)cc1 [4-methylphenol] + CCO
Conditions	mass density, 303.15 K [kg/m3]	mass density, 308.15 K [kg/m3]	mass density, 313.15 K [kg/m3]	mass density, 318.15 K [kg/m3]	speed of sound, 303.15 K [m/s]	speed of sound, 313.15 K [m/s]
x2 = 0	1026.47	1022.56	1018.64	1014.68	1473	1440.2
x2 = 0.1392	1006.2	1002.27	998.32	994.31	1435.7	1402.3
x2 = 0.2624	985.93	981.96	977.97	973.9	1392.4	1359.7
x2 = 0.3722	965.59	961.62	957.61	953.46	1350.4	1318.2
x2 = 0.4707	945.23	941.23	937.2	932.96	1311.9	1280
x2 = 0.5595	924.86	920.83	916.75	912.45	1277.5	1245.8
x2 = 0.6401	904.44	900.38	896.25	891.89	1247	1215.1
x2 = 0.7134	883.97	879.86	875.69	871.3	1220.1	1188
x2 = 0.7805	863.47	859.3	855.09	850.66	1196.3	1164
x2 = 0.8421	842.93	838.68	834.45	829.99	1175.3	1142.8
x2 = 0.8989	822.33	818.01	813.74	809.25	1156.8	1124.1
x2 = 0.9514	801.71	797.31	793.01	788.43	1140.8	1107.9

Cc1ccccc1O [2-methylphenol] + CCO
Conditions	mass density, 303.15 K [kg/m3]	mass density, 308.15 K [kg/m3]	mass density, 313.15 K [kg/m3]	mass density, 318.15 K [kg/m3]	speed of sound, 303.15 K [m/s]	speed of sound, 313.15 K [m/s]
x2 = 0	1037.02	1032.58	1028.19	1023.82	1488.1	1453
x2 = 0.1387	1015.95	1011.54	1007.18	1002.83	1435.4	1401.2
x2 = 0.2617	994.82	990.39	986.02	981.62	1391.2	1355.4
x2 = 0.3713	973.68	969.21	964.81	960.38	1351.2	1314.6
x2 = 0.4698	952.47	947.97	943.57	939.1	1314.2	1277.9
x2 = 0.5586	931.22	926.73	922.33	917.85	1280.2	1245
x2 = 0.6392	909.96	905.45	901.08	896.59	1249.3	1215.3
x2 = 0.7127	888.59	884.08	879.74	875.23	1221.5	1188.6
x2 = 0.7799	867.19	862.71	858.37	853.88	1196.9	1164.8
x2 = 0.8417	845.72	841.26	836.92	832.43	1175.2	1143.6
x2 = 0.8986	824.22	819.77	815.43	810.91	1156.5	1124.8
x2 = 0.951	802.69	798.22	793.89	789.33	1140.6	1108.4

Cc1cccc(O)c1 [3-methylphenol] + CCO
Conditions	mass density, 303.15 K [kg/m3]	mass density, 308.15 K [kg/m3]	mass density, 313.15 K [kg/m3]	mass density, 318.15 K [kg/m3]	speed of sound, 303.15 K [m/s]	speed of sound, 313.15 K [m/s]
x2 = 0	1025.71	1021.7	1017.69	1013.65	1466.1	1436.1
x2 = 0.14	1005.48	1001.45	997.42	993.36	1426.7	1398.2
x2 = 0.2637	985.23	981.17	977.1	972.97	1384.7	1355
x2 = 0.3738	964.94	960.82	956.72	952.53	1344.9	1313.8
x2 = 0.4724	944.63	940.47	936.35	932.08	1308.5	1276.5
x2 = 0.5612	924.32	920.08	915.95	911.64	1275.8	1243.4
x2 = 0.6417	903.96	899.68	895.51	891.18	1246.6	1214
x2 = 0.7149	883.56	879.25	875.06	870.68	1220.5	1188
x2 = 0.7817	863.15	858.83	854.61	850.21	1197.2	1164.7
x2 = 0.8431	842.67	838.32	834.07	829.62	1176.3	1143.9
x2 = 0.8995	822.2	817.81	813.53	809.06	1157.8	1125.3
x2 = 0.9517	801.66	797.22	792.9	788.34	1141.4	1108.7
